Assay results as given in patent US20240325379A1, “LOW-DOSE NALTREXOL AND USES THEREOF” (AETHER THERAPEUTICS INC., priority 2021, published 2024).
Entries after “also recorded” stand apart in the source; their conditions may differ. Like-named read-outs stand apart in the source and are kept apart here.

Tests used:
MOR [1] = target: T1, MOR (Homo sapiens, UniProt P35372); details: 6β-naltrexol compared with naltrexone; cited from earlier work
MOR [2] = assay: Antagonist potency when administered before morphine in mice; format: in vivo; details: for change of antagonist potency when given before morphine compared to the same time: ~2 h before morphine
[3] = test system: peripheral sensory neurons; details: after washing out the drugs, 6BN tested at 10 μM; cited from earlier work
[4] = humans; cited from earlier work
peripheral MOR = details: methadone maintenance subjects, cited from earlier work
MOR-μ* = assay: Prevention/reversal of opioid dependence in animal models (FIG. 1, methadone-treated animals); format: in vivo, guinea pig; details: low dose, no interference with opioid analgesia, no withdrawal
Description: FIG. 1 provides data showing prevention of withdrawal behavior in methadone-treated animals.

[5] = Blood and brain levels of 6BN after s.c. doses (FIG. 3); format: in vivo, guinea pigs
Method: Therefore, when serving as an addiction modulator, LD-6BN interacts effectively with both peripheral and central opioid receptors. Its effect on reversing opioid induced hyperalgesia might at least in part occur by acting on MOR in peripheral nociceptor neurons (15), but reversal of opioid dependence is likely driven by a central effect. The level of MOR bound 6BN after an s.c. dose of 0.02 mg/kg is estimated to occupy ˜10% of MOR sites, assuring a gradual reversal of MOR-μ* to MOR-μ and MOR-μ^x, insufficient to interfere with opioid analgesia, or cause withdrawal in dependent subjects.
(§1) High potency in facilitating gradual conversion of the dependent state (elevated MOR-μ*) back to the resting and/or reserve MOR states. Following LD-6B dosing, only a low fractional receptor occupancy is sufficient to reverse the dependent state in a gradual dynamic fashion, further accounting for high potency as an addiction modulator. • 5. When designed to act as an antagonist (doses above the LD-6BN range), potency is expected to increase over time when administered before an opioid agonist, presumably via high MOR-μ* occupancy and thereby more rapid reversal of MOR-μ* back to its resting or reserve states. […] Morphinan analogues of 6BN tend to bind to all opioid receptors with varying potency and efficacy (patents (47)). […] Potency of potential addiction modulators should therefore be tested for binding and efficacy at MOR, DOR (delta), and KOR, to detect differences between them and anticipate potential variation in clinical outcomes.

[6] = Oral bioavailability in humans; details: human, in vivo
Description: (§2) Additional preferred formulations include transdermal patch application and intranasal application (with partial direct access to the brain, bypassing the blood-brain-barrier). When combined with opioid analgesics in a co-formulation, LD-6BN can be delivered in the same formulation type for any of the opioid analgesics currently used clinically, including sustained release oral preparations. No dosage adjustments are needed.

[7] = Oral bioavailability in rodents; details: in vivo
Method: In one embodiment, the dose of 6BN is from 0.001 to 0.25 mg. In another embodiment, the dose of 6BN is from 0.25 to 0.50 mg. In a further embodiment, the dose of 6BN is from 0.50 to 0.75 mg. In a still further embodiment, the dose of 6BN is from 0.75 to 1.0 mg. In a still another embodiment, the dose of 6BN is from 1.0 to 1.25 mg. In another embodiment, the dose of 6BN is from 1.25 to 1.5 mg. In a further embodiment, the dose of 6BN is from 1.5 to 1.75 mg. In a still further embodiment, the dose of 6BN is from 1.75 to 2.0 mg. In a still further embodiment, the dose of 6BN is from 2.0 to 3.0 mg. These projected dose ranges can be modified once clinical results with LD-6BN are available (for example oral bioavailability, estimated here to be ˜30% as observed in rodents.

[8] = test system: morphine induced slowing of bowel movements; details: cited from earlier work
Water solubility = format: physicochemical
Description: as §2

[9] = target: kappa opioid receptors (KOR) (Homo sapiens, UniProt P41145); assay: Inverse agonist activity at KOR pretreated in vitro with KOR agonists; format: biochemical
Description: as §1

MOR [10] = details: opioid detoxification/weaning with descending doses of buprenorphine; cited from earlier work
MOR [11] = target: T1, MOR; assay: MOR affinity (in vitro binding)
MOR [12] = target: T1, MOR; assay: Neutral antagonism at MOR
Description: (§3) The invention embodies usage of any of these compounds or derivatives or metabolites thereof.

MOR [13] = target: T1, MOR; details: in vivo
Description: as §3

T1 sequence (P35372 whole entry): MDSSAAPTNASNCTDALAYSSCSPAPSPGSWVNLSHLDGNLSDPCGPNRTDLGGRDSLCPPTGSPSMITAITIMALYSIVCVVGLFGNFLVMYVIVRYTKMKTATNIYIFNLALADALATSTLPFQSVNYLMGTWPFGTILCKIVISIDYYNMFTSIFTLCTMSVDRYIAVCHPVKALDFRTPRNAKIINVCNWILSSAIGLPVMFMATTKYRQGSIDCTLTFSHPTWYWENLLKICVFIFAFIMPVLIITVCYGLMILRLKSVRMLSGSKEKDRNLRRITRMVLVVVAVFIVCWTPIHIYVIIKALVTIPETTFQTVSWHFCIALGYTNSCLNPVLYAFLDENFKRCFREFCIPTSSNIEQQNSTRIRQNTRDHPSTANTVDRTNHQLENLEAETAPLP
kappa opioid receptors (KOR), sequence (P41145 whole entry): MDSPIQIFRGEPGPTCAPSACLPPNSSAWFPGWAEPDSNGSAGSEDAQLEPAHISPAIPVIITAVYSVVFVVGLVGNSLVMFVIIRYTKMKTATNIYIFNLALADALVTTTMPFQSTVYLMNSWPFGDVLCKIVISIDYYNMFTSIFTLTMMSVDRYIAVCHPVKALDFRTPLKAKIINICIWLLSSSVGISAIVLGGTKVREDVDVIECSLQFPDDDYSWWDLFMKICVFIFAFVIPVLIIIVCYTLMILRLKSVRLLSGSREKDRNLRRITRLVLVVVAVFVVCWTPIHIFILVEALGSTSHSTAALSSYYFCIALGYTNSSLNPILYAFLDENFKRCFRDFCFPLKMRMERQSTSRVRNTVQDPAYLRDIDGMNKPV

Structure (SMILES): Oc1ccc2c3c1O[C@H]1[C@H](O)CC[C@@]4(O)[C@@H](C2)N(CC2CC2)CC[C@]314 [6BN, 6β-naltrexol]
- affinity for MOR (MOR [1]): nearly equally robust affinities
- pre-injection time of maximal delayed antagonist action (MOR [2]; high doses): ~2 h
- change of antagonist potency when given before morphine compared to the same time (MOR [2]): becomes more potent as an antagonist
- effect on MOR-μ* state [3]: reverses MOR-μ* back to the inactive state
- half-life in blood [4]: ~12 h
- central withdrawal symptoms (peripheral MOR; 0.5-1.0 mg i.v.): no central withdrawal symptoms
- tolerated i.v. dose (peripheral MOR; i.v., peripheral effects and bowel movements experienced): 0.5 to 1.0 mg
- reversal/prevention of the opioid dependent state (MOR-μ*; listed as 6β-Naltrexol): extreme potency
- reversal/prevention of the opioid dependent state (MOR-μ*; listed as 6β-naltrexol): reverses the dependent state with high potency
- receptor occupancy at 0.02 mg/kg ([5]; Cavia porcellus, sc, after an s.c. dose of 0.02 mg/kg, estimated, read-out: occupancy of MOR sites by bound 6BN): ~10%
- half-life ([5]; guinea pig, blood, sc, 1 mg/kg s.c., guinea pigs, read-out: initial blood t1/2 (converted)): ~1 h
- concentration at 24 h ([5]; guinea pig, brain, sc, 24 h after a 1 mg/kg s.c. dose, guinea pigs, read-out: brain level): 0.5 ng/g
- blood-brain-barrier penetration ([5]; guinea pig, in vivo): slowly
- bioavailability [6]: ~30%
- bioavailability [7]: ~30%
- suppression of analgesia ([8]; 20 mg, highest dose tested, administered 30 min before morphine): did not suppress analgesia
- ID50 against morphine induced slowing of bowel movements ([8]; i.v., against 10 mg morphine, opioid naïve subjects): ~3 mg
- water solubility (Water solubility): highly water soluble
- activity at KOR pretreated with KOR agonists [9]: detectable inverse agonist activity

Structure (SMILES): O=C1CC[C@@]2(O)[C@H]3Cc4ccc(O)c5c4[C@@]2(CCN3CC2CC2)[C@H]1O5 [naltrexone, reference compound]
- effect on MOR-μ* state [3]: lock MOR into the active MOR-μ* state while blocking MOR-μ* signaling
- initial total oral dose above which withdrawal symptoms occur (MOR [10]): ≤ 0.25 mg

Structure (SMILES): CC(=O)N[C@@H]1CC[C@@]2(O)[C@H]3Cc4ccc(O)c5c4[C@@]2(CCN3CC2CC2)[C@@H]1O5 [6β-naltrexamide]
- affinity to MOR in vitro (MOR [11]): high affinity
- change of antagonist potency when given before morphine compared to the same time (MOR [2]): gains potency; also recorded: increasing potency as a neutral antagonist
- potency as a neutral antagonist (MOR [12]): low potency as a neutral antagonist
- type of antagonism (MOR [12]): neutral antagonism
- peripheral selectivity (MOR [13]): peripheral selectivity
- peripheral selectivity (MOR [13]; listed as 6β-Natrexamide): strong peripherally selective activity
